Several values for one entry are separate records, joined by “and”; a condition that tells them apart may be missing. Identical values can stand only once. Like-named read-outs stand apart in the source and are kept apart here. Each block holds one compound with its values, some of them ahead of it.
How the values were obtained:
[1] = biological target: T1, hPAR2 (Homo sapiens, UniProt P55085); assay: Ca^2+ flux assay (FLIPR), inhibition of SLIGRL-NH2 activation in 1321N1-hPAR2 cells; format: cell-based
T1 sequence (P55085 26-397): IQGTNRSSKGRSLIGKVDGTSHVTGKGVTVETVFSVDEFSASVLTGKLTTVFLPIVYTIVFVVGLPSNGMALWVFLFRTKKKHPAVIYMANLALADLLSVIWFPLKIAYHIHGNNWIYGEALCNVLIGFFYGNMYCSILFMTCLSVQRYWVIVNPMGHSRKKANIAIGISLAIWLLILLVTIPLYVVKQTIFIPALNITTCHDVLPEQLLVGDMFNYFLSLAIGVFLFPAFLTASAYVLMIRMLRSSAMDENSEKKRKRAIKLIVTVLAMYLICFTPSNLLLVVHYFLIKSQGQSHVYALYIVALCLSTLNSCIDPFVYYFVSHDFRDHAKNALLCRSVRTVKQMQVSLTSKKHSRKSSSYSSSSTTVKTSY
Description: (§1) Cells were loaded with Fluo-8 NW calcium dye (AAT Bioquest) for 30 min at 37 °C before compounds in Hank’s balanced salt solution (HBSS, ThermoFisher Scientific) with 20 mM HEPES (ThermoFisher Scientific), 0.1% bovine serum albumin (BSA, Sigma) and 0.5% DMSO were added and simultaneously evaluated for changes in intracellular [Ca^2+] using FLIPR TETRA (Molecular Devices) to detect agonism. For each concentration, the difference between the maximum peak Ca^2+ response and baseline response is reported. […] Antagonism experiments were also carried out on 1321N1-PAR2[WT], 1321N1-PAR2[F154A], and 1321N1-PAR2[G157C] as described. Experiments with trypsin in 1321N1-hPAR2 cells were performed in the presence of 1 µM Vorapaxar (Chemtronica) to remove any interference of PAR1 activity. […] Antagonism experiments for CHO-hPAR2 and HT-29 cells were performed in 96-well plates at 30,000 cells/well. Cells were loaded with Fluo-3 AM calcium dye (Sigma-Aldrich) for 60 min at 37 °C in HBSS with 1% FBS, 0.2% pluronic acid, 20 mM HEPES and 2.5 mM probenecid prior to the addition of antagonist. The antagonist was pre-incubated for 60 min at 37 °C followed by the addition of bovine trypsin (30 nM) at EC80. Intracellular [Ca^2+] flux was measured using FLIPR TETRA (Molecular Devices) and the difference between the maximum peak Ca^2+ response and baseline response is reported.
(§2) Binding data were analysed using the One site – Fit Ki model in GraphPad Prism 8 (GraphPad Software) to determine binding affinity. Pharmacology in vitro potency data was analysed with a 4-parameter logistic fit using the equation y = Bottom + (Top − Bottom)/[…] where y is the response, x is the 10-logarithm of the drug concentration, Bottom is no response and Top is full response in GraphPad Prism 8 or Genedata Screener (Genedata). pEC50 and pIC50 data are presented as mean ± standard error of the mean (s.e.m.) derived from the number of independent experiments stated. Schild slope analysis was calculated using Graphpad Prism 8 Gaddum/Schild EC50 global fitting (shared model parameters between all data sets) competitive model. […] Schild slope quantifies the shifts in agonist response in the presence of antagonist, a Schild slope of 1 indicates the antagonist is competitive and extra-sum-of-squares F-test (p < 0.05) was used to compare the calculated Schild slope against a hypothetical Schild slope of 1. […] The relative activity was calculated using (EmaxEC50’)/(Emax’EC50) with the Hill slope help constant at 1. EC50’ and Emax’ denote the EC50 and Emax in the absence of allosteric modulator, while EC50 and Emax denote those measured in the presence of allosteric modulator. When the Hill slope = 1, the relative activity plot approaches an asymptote corresponding to the estimate of the γ value.

[2] = biological target: T1, hPAR2; assay: Europium-tagged competition binding assay against Eu-tagged-2f-LIGRLO(dtpa)-NH2 on CHO-hPAR2 cells; design: expressed in transfected cells; host or cells: Flp-In CHO
Description: CHO-hPAR2 cells were seeded overnight in 384-well plate at 2.5 × 10^4 cells/well and blocked with 2% BSA for 60 min. […] Cells were washed 3× with PBS supplemented with 20 µM EDTA, 0.01% Tween and 0.2% BSA followed by addition of DELFIA Enhancement Solution (Perkin Elmer) for 90 min. Time-resolved fluorescence was measured with PHERAstar FS reader (BMG Labtech).
as §2

[3] = biological target: T1, hPAR2; assay: Schild and allosteric model analysis of Ca^2+ mobilisation in CHO-hPAR2 cells (2f-LIGRL-NH2 or trypsin); format: cell-based; settings: for linear Schild regression slope: Figure R1; for logα / logβ: operational model of allosterism
Description: as §1, §2

[4] = system: mast cells; assay: Mast cell staining (toluidine blue), activated/degranulated mast cells in rat paw; format: in vivo; design: Active mast cells (%): concentration or dose not given beside the values; settings: for Active mast cells (%): 2f-induced rat paw oedema, individual animals (Figure 5b); for percentage activated/degranulated mast cells in paw induced by 2f-LIGRLO-NH2: pre-treatment, 30 min
Description: Tissues were then embedded with Optimal Cutting Temperature compound (OCT, Sakura Finetek, USA) and stored at −80 °C before making cryo-sections for histological analysis. Frozen sections (5 µm) were made using a cryostat-microtome (Leica Biosystems, Germany). […] Slides were then dehydrated and mounted in DPX mountant (Sigma-Aldrich, USA). For immunohistochemistry, slides were briefly rinsed with PBS to remove OCT. Except for tryptase staining, antigen retrieval was performed by incubating slides in citrate buffer (0.01 M, pH 6) at 95 °C for 20 min. They were then cooled down briefly and incubated with blocking medium (PBS, 0.1% Triton X-100, 10% horse serum) for 1 h at room temperature in a humidity chamber. Samples were incubated with primary antibody medium (PBS, 0.1% Triton X-100, 4% horse serum; 1:100 primary antibody including – histamine, neutrophil elastase or ED1 antibodies) overnight at 4 °C. The next day, samples were washed with PBS and incubated with the secondary antibody medium (PBS, 0.1% Triton X-100, 4% horse serum, detection antibody 1:200) for 2 h at room temperature. For tryptase staining, slides were incubated with primary antibody medium (as above with tryptase antibody at 1:100 dilution) for 4 h, then the secondary antibody medium for 2 h. Finally, slides were dried, counterstained with DAPI (Invitrogen, Australia), and sealed with clear nail polish. Primary antibodies for tryptase (AA1, ab2378, Abcam, Australia), histamine (H7403, Sigma-Aldrich, USA), neutrophil elastase (ab21595, Abcam, Australia) and ED1 (ab31630, Abcam, Australia) were purchased from commercial sources. Secondary detection antibody was purchased from Abcam, Australia.

[5] = against Eu-tagged-2f-LIGRLO(dtpa)-NH2, CHO-hPAR2 cells, mean ± s.e.m., read-out: Competition Binding (hPAR2) pKi (converted)
[6] = against 2f-LIGRL-NH2, Gaddum/Schild EC50 global fitting, CHO-hPAR2 cells
[7] = against trypsin, Gaddum/Schild EC50 global fitting, CHO-hPAR2 cells
[8] = 2f-LIGRL-NH2, Ca^2+ mobilisation
[9] = earlier manuscript version quoted by reviewer, read-out: Ki

IC50 ([1]; SLIGRL-NH2, 1321N1-hPAR2 cells, mean ± s.e.m., read-out: Ca^2+ flux (hPAR2) pIC50 (converted)): 5.01 nM | Ki [2, 5]: 79.4 nM
Structure (SMILES): C[C@@H](C1CCCCC1)n1c(-c2cc3c(cc2Br)OCO3)nc2cc(C(=O)Nc3ccncc3)ccc21 [AZ2623]

IC50 ([1]; Ca^2+ assay, earlier manuscript version quoted by reviewer, read-out: IC50): 2.8 nM | remaining activity at 0.001319 µM ([1]; log[compound], M -8.87976, individual data points, read-out: SLIGRL-NH2 Ca^2+ mobilisation, antagonist response, Fig 1c source data): 77.4% | γ value estimated from relative activity ([3]; 2f-LIGRL-NH2): 0.002 | linear Schild regression slope ([3]; 2f-LIGRL-NH2, CHO-hPAR2 cells): 0.4 | Schild slope [3, 6]: 0.4 | Schild slope [3, 7]: 0.3 | logα [3, 8]: −1.98 ± 0.11 | logβ [3, 8]: −0.28 ± 0.07 | logα ([3]; trypsin, Ca^2+ mobilisation): −1.19 ± 0.07 | logβ ([3]; trypsin, Ca^2+ mobilisation): −0.66 ± 0.08 | γ value estimated from relative activity ([3]; trypsin): 0.09 | linear Schild regression slope ([3]; trypsin, CHO-hPAR2 cells): 0.2 | Kb ([2]; determined with Eu-tagged-2f-LIGRLO(dtpa)-NH2, read-out: equilibrium dissociation constant pKA / pKB (converted)): 126 nM | Ki [2, 9]: 120 nM
Structure (SMILES): C[C@@H](C1CCCCC1)n1c(-c2cc3c(cc2Br)OCO3)nc2cc(C(=O)Nc3ccc(C#N)cc3)ccc21 [AZ3451]
Active mast cells (%) [4]: 40% and 57.0833% and 59.9284% and 37.5635% and 18.0263% | percentage activated/degranulated mast cells in paw induced by 2f-LIGRLO-NH2 [4]: inhibited

Structure (SMILES): CCCc1cc(F)ccc1C(O)c1ncc[nH]1 (stereo not shown) [AZ8838]
IC50 [1]: 2000 nM | remaining activity at 1.318 µM ([1]; read-out: SLIGRL-NH2 Ca^2+ mobilisation, antagonist response, Fig 1c source data, log[compound], M -5.88008, individual data points): 77.3% | remaining activity at 0.4168 µM ([1]; read-out: SLIGRL-NH2 Ca^2+ mobilisation, antagonist response, Fig 1c source data, log[compound], M -6.38007, individual data points): 83% | remaining activity at 0.1318 µM ([1]; read-out: SLIGRL-NH2 Ca^2+ mobilisation, antagonist response, Fig 1c source data, log[compound], M -6.88008, individual data points): 101% | remaining activity at 0.04169 µM ([1]; read-out: SLIGRL-NH2 Ca^2+ mobilisation, antagonist response, Fig 1c source data, log[compound], M -7.37997, individual data points): 90.3% | remaining activity at 0.01318 µM ([1]; read-out: SLIGRL-NH2 Ca^2+ mobilisation, antagonist response, Fig 1c source data, log[compound], M -7.88008, individual data points): 91.2% | remaining activity at 0.00417 µM ([1]; read-out: SLIGRL-NH2 Ca^2+ mobilisation, antagonist response, Fig 1c source data, log[compound], M -8.37986, individual data points): 97.2% | remaining activity at 0.001319 µM ([1]; read-out: SLIGRL-NH2 Ca^2+ mobilisation, antagonist response, Fig 1c source data, log[compound], M -8.87976, individual data points): 102% | linear Schild regression slope ([3]; 2f-LIGRL-NH2, CHO-hPAR2 cells): 1.0 | Schild slope [3, 6]: 1.1 | Schild slope [3, 7]: 0.9 | linear Schild regression slope ([3]; trypsin, CHO-hPAR2 cells): 0.8 | Active mast cells (%) [4]: 57.5% and 42.6997% and 37.7451% and 42.5373% and 50% | percentage activated/degranulated mast cells in paw induced by 2f-LIGRLO-NH2 [4]: inhibited | Ki [2, 5]: 6310 nM | Ki [2, 9]: 3600 nM
